# ChEMBL document CHEMBL1201862, “PubChem BioAssay data set” (2004)
# Activity calls are given as the source filed them.
# Tests used:
# [1] = inhibitors of intracellular T. cruzi replication, confirmation, NIH3T3 host cells, beta-gal luminescence (AID 2044); type: functional, cell-based;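 note: intracellular parasites grown in NIH/3T3 mouse fibroblasts as host cells; luminescent beta-galactosidase reporter signal from transgenic T. cruzi replicating inside host cells; inhibitors lower the luminescence signal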
# [2] = microbe, parasite or virus in culture; type: functional; conditions: Mycobacterium tuberculosis
# [3] = cytotoxicity toward NIH3T3 fibroblasts, dose response, counter-screen, cell-based, ATP luminescence, mouse fibroblasts (AID 2010); type: functional;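 note: cells exposed to compound for about 90 hours before reading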
# [4] = NIH:OVCAR-3 ovarian cancer cell cytotoxicity, dose response, PAX8 inhibitor project, plate reader, dry powder samples (AID 743044); type: functional, cell-based
# Paired box protein Pax-8 = Paired box protein Pax-8 (Homo sapiens, UniProt Q06710); assay: inhibitors of PAX8-driven TPO luciferase reporter, dose response, RMG-I cells, cherry-pick (AID 687027); type: functional, cell-based;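 note: luciferase reporter driven by Pax8 target thyroperoxidase promoter measured by SteadyGlo luminescence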
# Sequence of Paired box protein Pax-8 (Q06710 whole entry): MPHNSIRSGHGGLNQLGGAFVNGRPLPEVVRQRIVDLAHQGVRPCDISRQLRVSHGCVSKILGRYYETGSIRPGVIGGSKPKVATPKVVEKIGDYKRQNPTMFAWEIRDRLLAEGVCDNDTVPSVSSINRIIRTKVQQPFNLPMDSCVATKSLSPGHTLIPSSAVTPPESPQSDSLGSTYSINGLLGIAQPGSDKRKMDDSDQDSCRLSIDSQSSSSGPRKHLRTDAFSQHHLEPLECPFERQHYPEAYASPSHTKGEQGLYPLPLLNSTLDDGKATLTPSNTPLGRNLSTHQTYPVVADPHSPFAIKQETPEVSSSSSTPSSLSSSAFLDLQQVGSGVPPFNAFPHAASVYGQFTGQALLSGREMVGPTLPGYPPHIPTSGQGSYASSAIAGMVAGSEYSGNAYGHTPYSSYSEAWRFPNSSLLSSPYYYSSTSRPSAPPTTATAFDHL
# Protein skinhead-1 = molecular target: T1, Protein skinhead-1 (Caenorhabditis elegans, UniProt P34707); type: functional
# T1 sequence (P34707 whole entry): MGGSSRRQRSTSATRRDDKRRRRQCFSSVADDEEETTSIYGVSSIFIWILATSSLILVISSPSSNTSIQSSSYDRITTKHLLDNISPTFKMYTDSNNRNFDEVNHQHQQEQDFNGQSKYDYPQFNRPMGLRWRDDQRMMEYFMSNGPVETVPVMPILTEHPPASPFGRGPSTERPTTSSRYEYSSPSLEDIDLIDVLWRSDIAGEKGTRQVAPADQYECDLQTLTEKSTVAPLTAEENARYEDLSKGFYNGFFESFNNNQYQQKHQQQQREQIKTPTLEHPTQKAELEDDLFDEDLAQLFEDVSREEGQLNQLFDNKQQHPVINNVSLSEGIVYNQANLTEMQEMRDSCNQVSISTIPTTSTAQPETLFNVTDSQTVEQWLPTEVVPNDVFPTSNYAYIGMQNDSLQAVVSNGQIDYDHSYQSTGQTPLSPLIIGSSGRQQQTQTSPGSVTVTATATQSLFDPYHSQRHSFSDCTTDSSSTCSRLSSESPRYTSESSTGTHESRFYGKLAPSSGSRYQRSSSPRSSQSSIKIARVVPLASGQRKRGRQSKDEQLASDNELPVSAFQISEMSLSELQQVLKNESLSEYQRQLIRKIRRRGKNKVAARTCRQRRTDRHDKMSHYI
# cells [5] = type: functional, cell-based
# [6] = Luminescence Cell-Based Dose Retest to Confirm Inhibitors of Cancer Stem Cells. [Related pubchem assays (depositor defined):AID2717, AID2721]; type: functional; conditions: Homo sapiens
# cells [7] = type: functional, cell-based; remark: listed apart in the source
# [8] = molecular target: FAD-linked sulfhydryl oxidase ALR (Homo sapiens, UniProt P55789); assay: inhibitors of human ALR sulfhydryl oxidase, dose response, biochemical, H2O2 detection, luminescence, cherry-pick (AID 493248)
# Sequence of FAD-linked sulfhydryl oxidase ALR (P55789 whole entry): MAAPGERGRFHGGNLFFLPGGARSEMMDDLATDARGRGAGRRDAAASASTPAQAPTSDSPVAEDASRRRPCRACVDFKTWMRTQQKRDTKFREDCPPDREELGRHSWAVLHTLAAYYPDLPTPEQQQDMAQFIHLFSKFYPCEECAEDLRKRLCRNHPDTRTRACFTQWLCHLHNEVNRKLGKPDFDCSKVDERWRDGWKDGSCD
# [9] = molecular target: T2, High affinity choline transporter 1 (Homo sapiens, UniProt Q9GZV3); assay: CHT inhibitors, dose response, cell-based, 5-point CRC, membrane potential dye (AID 504840); type: functional
# T2 sequence (Q9GZV3 whole entry): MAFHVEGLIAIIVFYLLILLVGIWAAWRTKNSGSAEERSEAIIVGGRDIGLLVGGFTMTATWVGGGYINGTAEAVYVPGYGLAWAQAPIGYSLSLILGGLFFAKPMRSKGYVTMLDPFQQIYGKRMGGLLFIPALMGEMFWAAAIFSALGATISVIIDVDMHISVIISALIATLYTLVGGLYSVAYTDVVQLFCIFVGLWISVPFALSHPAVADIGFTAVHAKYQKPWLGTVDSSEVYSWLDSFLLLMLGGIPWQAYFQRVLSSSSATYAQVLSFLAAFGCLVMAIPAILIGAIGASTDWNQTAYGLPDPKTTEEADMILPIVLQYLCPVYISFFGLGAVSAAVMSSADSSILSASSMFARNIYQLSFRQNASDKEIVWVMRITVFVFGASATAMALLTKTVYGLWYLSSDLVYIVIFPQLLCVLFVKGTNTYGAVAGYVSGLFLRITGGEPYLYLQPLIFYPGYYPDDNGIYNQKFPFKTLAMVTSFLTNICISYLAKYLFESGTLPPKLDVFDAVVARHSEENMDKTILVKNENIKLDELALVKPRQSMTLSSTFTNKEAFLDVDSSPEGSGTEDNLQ
# [10] = molecular target: T3, Rac GTPase-activating protein 1 (Homo sapiens, UniProt Q9H0H5); assay: MgcRacGAP GTPase-activating activity inhibitors, confirmation, biochemical, ADP Hunter fluorescence, primary and confirmatory (AID 624330); type: functional
# T3 sequence (Q9H0H5 whole entry): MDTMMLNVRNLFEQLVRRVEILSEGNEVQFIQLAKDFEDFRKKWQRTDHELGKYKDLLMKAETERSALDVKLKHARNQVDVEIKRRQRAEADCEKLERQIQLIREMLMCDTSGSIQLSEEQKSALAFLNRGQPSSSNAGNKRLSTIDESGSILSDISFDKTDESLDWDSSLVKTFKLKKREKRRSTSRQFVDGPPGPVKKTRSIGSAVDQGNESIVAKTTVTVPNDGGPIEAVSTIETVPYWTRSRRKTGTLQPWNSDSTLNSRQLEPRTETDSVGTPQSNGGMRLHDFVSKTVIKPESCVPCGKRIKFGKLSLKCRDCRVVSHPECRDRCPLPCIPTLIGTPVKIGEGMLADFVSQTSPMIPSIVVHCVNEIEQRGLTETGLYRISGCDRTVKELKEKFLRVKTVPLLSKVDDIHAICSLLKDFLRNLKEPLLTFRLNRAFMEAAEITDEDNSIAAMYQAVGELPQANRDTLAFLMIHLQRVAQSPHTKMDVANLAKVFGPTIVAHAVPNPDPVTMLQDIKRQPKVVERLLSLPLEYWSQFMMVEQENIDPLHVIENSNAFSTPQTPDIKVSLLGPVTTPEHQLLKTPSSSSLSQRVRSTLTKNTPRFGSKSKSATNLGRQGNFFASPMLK
# INS1 = assay: beta cell apoptosis inhibitors, cytokine rescue, dose response, luminescence, retest (AID 449756); type: functional, cell-based; conditions: Rattus norvegicus;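 note: cell death triggered by IL-1 beta plus TNF-alpha plus IFN-gamma mixture; protective hits raise ATP signal compared with cytokine alone wells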
smiles,measurement,setting,value
CCn1c(=O)c(CCC(=O)N2CCN(c3ccccn3)CC2)c(C)c2c(C)nn(-c3cccc(C)c3)c21,EC50,[1],1.59 µM (active)
same,CC50,[2],> 40 µM (active)
same,EC50,[3],> 60 µM (not active)
C[C@@H]1CN([C@H](C)CO)C(=O)c2cccc(NC(=O)Nc3cccc4ccccc34)c2O[C@H]1CN(C)C(=O)Nc1ccc(C(F)(F)F)cc1,AC50,[4],64.2 µM (active)
same,AC50,Paired box protein Pax-8,14.6 µM (active)
CCOC(=O)N1CCC(N2Cc3cccc(C(=O)Nc4ccc(N(CC)CC)cc4C)c3C2=O)CC1,CC50,[2],> 40 µM (active)
c1ccc(-c2noc(CSc3nc4ccccc4o3)n2)cc1,IC50,Protein skinhead-1,75.7 µM (inactive)
CCN1CCN(CCCOc2ccc(-c3ccccc3)cc2)CC1,EC50,[1],0.799 µM (active)
same,EC50,cells [5],> 350 µM (not active)
same,AC50,[6],4.69 µM (active)
same,EC50,cells [7],> 350 µM (not active)
same,EC50,[3],4.6 µM (active)
CC1(C)CC(NC(=O)CCC2CCCC2)CC(C)(C)N1,EC50,cells [5],> 350 µM (not active)
same,EC50,cells [7],> 350 µM (not active)
COc1cccc(OC)c1C(=O)N1CCN=C1SCc1cccnc1,AC50,[8],0.043 µM (active)
c1ccc(CSc2ccc(-c3ccco3)nn2)cc1,IC50,Protein skinhead-1,> 100 µM (inactive)
Cc1occc1C(=O)NCCCCc1ccccc1,AC50,[8],0.488 µM (active)
COc1ccc(C(=O)N(C)CCCC2CCCC2)cc1OC1CCN(C(C)C)CC1,IC50,[9],12 µM (active)
N#C/C=C\Oc1ccc(Cl)cc1N,CC50,[2],> 40 µM (active)
same,IC50,[10],218 µM (active)
Cc1cc(C)c(NC(=O)c2ccc(CN3CCc4ccccc4C3)cc2)c(C)c1,IC50,[9],12.9 µM (active)
Cc1ccc(NC(=S)N(Cc2cccs2)Cc2cc3cccc(C)c3nc2O)cc1,EC50,cells [5],> 350 µM (not active)
same,EC50,cells [7],> 350 µM (not active)
Cc1ccc(N/C=C/C(=O)c2cccs2)cc1C,IC50,Protein skinhead-1,> 100 µM (inactive)
O=C(NC(=S)Nc1ccccn1)c1cc(-c2ccccc2)nc2ccccc12,EC50,cells [5],47.1 µM (active)
same,EC50,cells [7],> 350 µM (not active)
O=C(N/N=C\c1c(O)ccc2ccccc12)c1ccc(Cn2cccn2)o1,EC50,cells [5],> 350 µM (not active)
same,EC50,cells [7],82 µM (active)
same,AC50,INS1,1.23 µM (active)
Cc1cccc(C)c1NC(=O)c1ccc(CN2CCc3ccccc3C2)cc1,IC50,[9],18.2 µM (active)
